Patent US10668032B2 (SyneuRx International (Taiwan) Corp., priority 2016, dated 2020)

Legend:
[1] = tested on: primary cortical neuronal culture; test: Detection of cellular reactive oxygen species (CellROX) after 3-NP in primary cortical culture; type: cell-based, rat; conditions: for ROS production induced by 3-NP: 0.5 mM, incubated 24 hours before 3-NP
Experimental: Reactive oxygen species (ROS) are detected on primary cortical neuronal culture by CellROX Oxidative Reagents (catalog number 10444, Life Technologies Corp. USA). […] The cells were then exposed to 2.5 mM 3-NP for 24 hours. Subsequently, […] CellROX Reagent was added, and then incubated for […]. CellROX Green Reagent is a DNA dye, and upon oxidation, it binds to DNA; thus, its signal is localized in the nucleus and mitochondria. ROS were quantified by fluorescence intensity. The samples were observed under a laser scanning confocal microscope Zeiss LSM700 (Zeiss, Germany) equipped with filter sets to detect fluorescent signal.

primary cortical neurons [2] = test: 3-NP induced toxicity in primary cortical culture (Hoechst staining, MAP-2 immunocytochemistry); type: cell-based, rat; conditions: exposure to 3-NP alone (2.5 mM, 24 h); untreated 0.1
Experimental: Primary cortical cultures were prepared from embryonic day 18 (E18) fetal Sprague Dawley (SD) rat brains. The cells were maintained in Neurobasal medium supplemented with B27 (GIBCO/Life Technologies of Thermo Fisher Scientific Corporation) at 37° C. for 7 days to allow growth of dendrites before experimentation.
3-NP (Cat. No. 73803, Sigma, St. Louis, Mo., USA) was dissolved in phosphate-buffered saline (PBS) as a stock solution of 1 M and adjusted to pH 7.4 with 10 M sodium hydroxide. The 3-NP stock solution was then dispensed into 1-ml aliquots, protected from light, and stored at −20° C. until use.
Hoechst staining is used to assess the extent of the cell survival. Cells were fixed in 4% paraformaldehyde (PFA) in phosphate-buffered saline (PBS), incubated with the Hoechst 33342 diluted in PBS (1:1000) for 5-15 minutes. The Hoechst staining is used to assess the extent of the cell survival after the exposure to 2.5 mM 3-NP for 24 hours.
Cells were fixed in 4% PFA and washed in PBS, blocked with 2% bovine serum albumin (BSA) and treated by 0.03% Triton X-100 in PBS, before being incubated with mouse monoclonal antibody against microtubule-associated protein-2 (MAP-2) in 1:150 dilution (Cat. No. MAB378, CHEMICON International, Inc., Temecula, Calif., USA). The goat anti-mouse IgG Alexa fluor-conjugated secondary antibodies (Cat No. A11003, Thermo Scientific) in 1:500 dilution were applied to recognize the primary antibodies of the MAP-2. For confocal microscopy, the coverslips were observed under a laser-scanning confocal microscope (Zeiss LSM700; Oberkochen, Germany) equipped with filter sets to detect the corresponding fluorescent signals.
The cells were then exposed to 2.5 mM 3-NP for 24 hours.
Quantitative analysis was also performed to assess the extents of cell death. At least three vision fields were randomly selected and the averaged numbers of dead cells and all nuclei per vision field on each coverslip were calculated.

cortical neurons = test: Mitochondrial respiration, XF Cell Mito Stress Test (OCR); type: cell-based, rat; conditions: 3 mM, pre-treatment 24 h
Experimental: The preparation of primary cortical culture was as described before, but the cells were seeded on XF 96 well cell culture microplates. On the day of assay, culture media were changed to XF Assay medium (Seahorse Biosciences, USA). Prior to assay, plates were transferred into an incubator with CO2 supplementation at 37° C. and kept for 1 hour. The overall OCR was calculated.
The XF Cell Mito Stress Test modulates respiration that target components of the electron transport chain (ETC) in the mitochondria to reveal key parameters of metabolic function. The modulators (oligomycin, FCCP, and a mix of rotenone and antimycin A) are serially injected to measure ATP production, maximal respiration, and non-mitochondrial respiration. Proton leak and spare respiratory capacity are then calculated using these parameters.

[3] = tested on: GFAP positive cells in cortical culture; test: GFAP immunocytochemistry in cortical culture after Aβ25-35; type: cell-based, rat; conditions: post-treatment 1 mM
Experimental: Cells were fixed in 4% PFA and washed in PBS, blocked with 2% bovine serum albumin (BSA) and 0.03% Triton X-100 in PBS, and then incubated with mouse monoclonal antibody against microtubule-associated protein-2 (MAP-2) (Cat. No. MAB378, 1:150, CHEMICON International, Inc., Temecula, Calif., USA); rabbit polyclonal antibody against GFAP (Cat. No. Z0334, 1:600, DakoCytomation Denmark A/S, Denmark). The goat anti-mouse IgG Alexa Fluor-conjugated secondary antibodies (1:500; Cat No. A11003, Thermo Scientific); anti-rabbit IgG Alexa Fluor-conjugated secondary antibodies (1:500; Thermo Scientific) were applied respectively to recognize the primary antibodies of the MAP-2 and GFAP.
The coverslips were observed under a digital imaging fluorescence microscope (Olympus BX61; Japan) equipped with filter sets to detect the corresponding fluorescence signals.
Glial fibrillary acidic protein (GFAP) is an intermediate filament protein expressed by cells in the CNS, and is also recognized as an astrocyte maturation marker. Upregulation of GFAP, indicating gliosis, is commonly observed after CNS lesion; therefore, expression of GFAP could be useful to understand the state of neurological diseases.

[4] = tested on: cortical cells with Aβ25-35 exposure; test: Aβ25-35 cytotoxicity with or without NMDA receptor antagonist MK801, cell survival
Experimental: Aβ25-35 (Cat. No. A4559, Sigma) was dissolved in autoclaved ddH2O to make a stock solution of 2 mM, dispensed into aliquots, and immediately stored at −80° C. until use.
In this study, the application of MK801 could reveal whether the neuroprotective effects of drugs were mediated by NMDA receptor.

SH-SY5Y cells = test: MPTP toxicity in SH-SY5Y cells, MTT assay; type: cell-based, human; conditions: MPTP 750 μM, 24 hrs
Experimental: SH-SY5Y, the human neuroblastoma cell line, was incubated with MPTP (750 μM) for 24 hrs.

primary cortical neurons [5] = test: Aβ25-35 cytotoxicity in primary cortical culture, cell survival (MTT); conditions: 10 μM Aβ 25-35 for 2 days, then drug 1 mM for 4 days; vs no drug treatment
Experimental: MTT assay was used to assess the extents of cell survival. MTT (3-(4,5-dimethylthiazol-2-yl)-2,5-diphenyltetrazolium bromide) was added to the culture, incubated at 37° C. for 4 hours. Insoluble purple formazan products were yield by living cells. The colorimetric method was used to quantify the surviving cells, and “cell survival (%)” was defined as the mean numbers of surviving cells.
Primary cortical cultures were prepared as previous described. Aβ25-35 (Cat. No. A4559, Sigma) was dissolved in autoclaved ddH2O to make a stock solution of 2 mM, dispensed into aliquots, and immediately stored at −80° C. until use.

| Compound | spare respiratory capacity (cortical neurons) | ROS production induced by 3-NP [1] | number of GFAP positive cells after Aβ25-35 exposure [3] | also measured |
| --- | --- | --- | --- | --- |
| O=C(O)CC[N+](=O)[O-] [3-NP, 3-Nitropropionic acid, reference compound] |  |  |  | increase of ROS production ([1]; 3-NP alone): more than 50%; death index (ratio of dead cells to survived cells) (primary cortical neurons [2]): 0.4 |
| O=C([O-])c1ccccc1.[Na+] [sodium benzoate, reference compound] | less effective than LiBen | reduce the amount of cellular ROS | did not influence | protective effect in the presence of MK801 ([4]; 1 mM, MK801 10 μM): blocked; cell survival with Aβ25-35 exposure ([4]; post-treatment 1 mM, MK801 0 μM): elevate the cell survival |
| CN1CC=C(c2ccccc2)CC1 [MPTP, 1-methyl-4-phenyl-1,2,3,6-tetrahydropyridine, reference compound] |  |  |  | cell number reduction (SH-SY5Y cells): about 50% |
| [Cl-].[Li+] [lithium chloride, reference compound] | less effective than LiBen | reduce the amount of cellular ROS | significantly reduced | cortical cell survival after Aβ25-35 (primary cortical neurons [5]): statistical improvement |
